Assay results as given in US10995101B2, “2-oxo-thiazole derivatives as A2A inhibitors and compounds for use in the treatment of cancers” (iTeos Therapeutics SA, priority 2017, dated 2021).

How the values were obtained:
A2A receptor [1] = molecular target: T1, A2A receptor (Homo sapiens, UniProt P29274); assay: Inhibition of cAMP production in HEK cells; type: cell-based; settings: HEK-293 cells with A2A receptor
in vitro = settings: human, Caco-2, pH 7.4
A2A receptor [2] = molecular target: T1, A2A receptor; assay: Human IL-2 T cell assay (restoration of IL-2 production in CGS-21680-treated CD3+ T cells); type: cell-based; design: endogenous in cells; host or cells: human CD3+ T cells isolated from venous blood of healthy volunteers
Description: When T-cells are activated, they produce pro-inflammatory cytokines. When the A2A receptor is activated in T cells, the amount of cytokines produced in response to stimulation of T-cells is reduced.
Venous blood from healthy volunteers, all of whom signed an informed consent approved by the Ethics Committee (FOR-UIC-BV-050-01-01 ICF_HBS_HD Version 5.0), was obtained via ImmuneHealth (Centre Hospitalier Universitaire Tivoli, La Louviere, Belgium). Mononuclear cells were collected by density gradient centrifugation, using SepMate-50 tubes (StemCell Technologies, Grenoble, France) and Lymphoprep (Axis-shield, Oslo, Norway) according to the manufacturer's instructions. CD3+ T cells were isolated by immunomagnetic negative selection, using the EasySep Human T Cell Isolation Kit (StemCell Technologies) as per manufacturer's instructions. CD3+ T cells were stored in heat inactivated foetal bovine serum (hiFBS; Gibco, ThermoFisher Scientific, Merelbeke, Belgium) containing 10% DMSO in liquid nitrogen.
Human purified CD3+ T cells were thawed and washed twice with RPMI1640 medium (with UltraGlutamine; Lonza, Verviers, Belgium) supplemented with 1× non-essential amino acids (Lonza), 2% Pen/Strep (Lonza) and 1 mM Sodium Pyruvate (Gibco) (complete media), containing 10% hiFBS. The cells were suspended either in complete media containing 20% hiFBS or in 100% heat inactivated human serum (hiHS; Sigma-Aldrich, Diegem, Belgium). Cells were activated by adding anti-CD3 and anti-CD28 coated microbeads (Dynabeads human T-activator CD3/CD28; Life Technologies, Paisley, UK), suspended either in complete media containing 20% hiFBS or in 100% hiHS. […] Serial dilutions of the compounds of the present invention were prepared and added to the wells. The cells were placed in a 37° C. humidified tissue culture incubator with 5% CO2 for 72 hours. After 72 hours, supernatants were sampled and IL-2 was quantified using the IL-2 (human) AlphaLISA Biotin-Free Detection Kit (AL333F; Perkin-Elmer, Zaventem, Belgium), according to the manufacturer's instructions.

[3] = IC50 (nM) (3 nM NECA as agonist, 0.1% BSA), 3 nM NECA as agonist, 0.1% BSA
[4] = IC50 (nM) (5 nM NECA as agonist, 2% HSA), 5 nM NECA as agonist, 2% HSA
[5] = IC50 (nM) (5 μM Adenosine as agonist, 2.0% HSA), 5 μM Adenosine as agonist, 2.0% HSA
[6] = IC50 (nM) (5000 nM CGS-21680 as agonist, 50% HSA), restoration of IL-2 production, human CD3+ T cells, anti-CD3/CD28 beads, 5000 nM CGS-21680, 50% HSA, 72 hours
[7] = IC50 (nM) (500 nM CGS-21680 as agonist, 10% FBS), restoration of IL-2 production, human CD3+ T cells, anti-CD3/CD28 beads, 500 nM CGS-21680, 10% FBS, 72 hours

T1 sequence (P29274 whole entry): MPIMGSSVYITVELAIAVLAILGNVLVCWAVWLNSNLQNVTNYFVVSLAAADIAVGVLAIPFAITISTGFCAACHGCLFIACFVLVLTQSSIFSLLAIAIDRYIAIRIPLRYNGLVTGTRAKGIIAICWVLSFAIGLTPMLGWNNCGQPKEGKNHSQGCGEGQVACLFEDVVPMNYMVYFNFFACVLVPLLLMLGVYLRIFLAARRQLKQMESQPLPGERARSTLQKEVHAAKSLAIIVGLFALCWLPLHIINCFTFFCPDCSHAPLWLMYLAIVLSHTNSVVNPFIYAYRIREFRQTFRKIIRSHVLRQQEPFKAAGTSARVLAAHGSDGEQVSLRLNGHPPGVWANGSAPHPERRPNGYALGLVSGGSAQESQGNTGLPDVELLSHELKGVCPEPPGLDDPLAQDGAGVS

SMILES | IC50 (A2A receptor [1]; [3]) | IC50 (A2A receptor [1]; [4]) | IC50 (A2A receptor [1]; [5]) | efflux ratio at 120 min, 2 μM (in vitro) | IC50 (A2A receptor [2]; [6]) | IC50 (A2A receptor [2]; [7]) | IC50 (A2A receptor [2]) | IC50 (A2A receptor [2]; IC50 (nM) (500 nM CGS-21680 as agonist, 50% HSA), restoration of IL-2 production, human CD3+ T cells, anti-CD3/CD28 beads, 500 nM CGS-21680, 50% HSA, 72 hours)
Nc1nc2c(sc(=O)n2CCN2CCN(c3ccc(OCc4c[nH]nn4)cc3F)CC2)c2nc(-c3ccco3)nn12 [Compound 1, 3-(2-(4-(4-((1H-1,2,3-triazol-4-yl)methoxy)-2-fluorophenyl)-piperazin-1-yl)ethyl)-5-amino-8-(furan-2-yl)thiazolo[5,4-e][1,2,4]triazolo[1,5-c]pyrimidin-2(3H)-one] | 0.6 nM | 9 nM | 511 nM | 48 | 120 nM | – | – | –
Nc1nc2c(sc(=O)n2CCN2CCN(c3ccc(OCc4n[nH]c(=O)o4)cc3F)CC2)c2nc(-c3ccco3)nn12 [Compound 2, 5-((4-(4-(2-(5-amino-8-(furan-2-yl)-2-oxothiazolo[5,4-e][1,2,4]triazolo[1,5-c]pyrimidin-3(2H)-yl)ethyl)piperazin-1-yl)-3-fluorophenoxy)methyl)-1,3,4-oxadiazol-2(3H)-one] | 0.3 nM | 17 nM | 708 nM | 28 | 18 nM | 0.9 nM | – | –
CNCCNC(=O)c1ccc(N2CCN(CCn3c(=O)sc4c3nc(N)n3nc(-c5ccco5)nc43)CC2)c(F)c1 [Compound 31, 4-(4-(2-(5-amino-8-(furan-2-yl)-2-oxothiazolo[5,4-e][1,2,4]triazolo[1,5-c]pyrimidin-3(2H)-yl)ethyl)piperazin-1-yl)-3-fluoro-N-(2-(methylamino)ethyl)benzamide] | 0.4 nM | 1 nM | 42 nM | 28 | 14 nM | 2.1 nM | 8.3 nM | 5.4 nM
CN(C)CCNC(=O)c1ccc(N2CCN(CCn3c(=O)sc4c3nc(N)n3nc(-c5ccco5)nc43)CC2)c(F)c1 [Compound 32, 4-(4-(2-(5-amino-8-(furan-2-yl)-2-oxothiazolo[5,4-e][1,2,4]triazolo[1,5-c]pyrimidin-3(2H)-yl)ethyl)piperazin-1-yl)-N-(2-(dimethylamino)ethyl)-3-fluorobenzamide] | 4.3 nM | 7 nM | 356 nM | 329 | 28 nM | – | – | –
Nc1nc2c(sc(=O)n2CCN2CCN(c3cc(O[C@H]4CC[S@@+]([O-])CC4)c(F)cc3F)CC2)c2nc(-c3ccco3)nn12 [Compound 111, 5-amino-3-(2-(4-(2,4-difluoro-5-(((1s,4s)-1-oxidotetrahydro-2H-thiopyran-4-yl)oxy)phenyl)piperazin-1-yl)ethyl)-8-(furan-2-yl)thiazolo[5,4-e][1,2,4]triazolo[1,5-c]pyrimidin-2(3H)-one] | 0.6 nM | – | 91 nM | 583 | – | – | – | –
Nc1nc2c(sc(=O)n2CCN2CCN(c3cc(O[C@H]4CC[S@+]([O-])CC4)c(F)cc3F)CC2)c2nc(-c3ccco3)nn12 [Compound 112, 5-amino-3-(2-(4-(2,4-difluoro-5-(((1r,4r)-1-oxidotetrahydro-2H-thiopyran-4-yl)oxy)phenyl)piperazin-1-yl)ethyl)-8-(furan-2-yl)thiazolo[5,4-e][1,2,4]triazolo[1,5-c]pyrimidin-2(3H)-one] | 0.8 nM | – | 53 nM | 605 | – | – | – | –
C[S@+]([O-])CCNC(=O)c1cc(N2CCN(CCn3c(=O)sc4c3nc(N)n3nc(-c5ccco5)nc43)CC2)c(F)cc1F [Compound 113, (S)-5-(4-(2-(5-amino-8-(furan-2-yl)-2-oxothiazolo[5,4-e][1,2,4]triazolo[1,5-c]pyrimidin-3(2H)-yl)ethyl)piperazin-1-yl)-2,4-difluoro-N-(2-(methylsulfinyl)ethyl)benzamide] | 0.4 nM | – | 37 nM | 374 | – | – | – | –
C[S@@+]([O-])CCNC(=O)c1cc(N2CCN(CCn3c(=O)sc4c3nc(N)n3nc(-c5ccco5)nc43)CC2)c(F)cc1F [Compound 114, (R)-5-(4-(2-(5-amino-8-(furan-2-yl)-2-oxothiazolo[5,4-e][1,2,4]triazolo[1,5-c]pyrimidin-3(2H)-yl)ethyl)piperazin-1-yl)-2,4-difluoro-N-(2-(methylsulfinyl)ethyl)benzamide] | 0.3 nM | – | 80 nM | 403 | – | – | – | –
CN(CC[S@@+](C)[O-])C(=O)c1cc(N2CCN(CCn3c(=O)sc4c3nc(N)n3nc(-c5ccco5)nc43)CC2)c(F)cc1F [Compound 116, (R)-5-(4-(2-(5-amino-8-(furan-2-yl)-2-oxothiazolo[5,4-e][1,2,4]triazolo[1,5-c]pyrimidin-3(2H)-yl)ethyl)piperazin-1-yl)-2,4-difluoro-N-methyl-N-(2-(methylsulfinyl)ethyl)benzamide] | 1.2 nM | – | 245 nM | 421 | – | – | – | –
Nc1nc2c(sc(=O)n2CCN2CCN(c3cc(C(=O)N4CC[S+]([O-])CC4)c(F)cc3F)CC2)c2nc(-c3ccco3)nn12 [Compound 117, 5-amino-3-(2-(4-(2,4-difluoro-5-(1-oxidothiomorpholine-4-carbonyl)phenyl)piperazin-1-yl)ethyl)-8-(furan-2-yl)thiazolo[5,4-e][1,2,4]triazolo[1,5-c]pyrimidin-2(3H)-one] | 329 nM | – | 3160 nM | 12 | – | – | – | –
C[S@+]([O-])CCNC(=O)c1ccc(N2CCN(CCn3c(=O)sc4c3nc(N)n3nc(-c5ccco5)nc43)CC2)c(F)c1 [Compound 123, (S)-4-(4-(2-(5-amino-8-(furan-2-yl)-2-oxothiazolo[5,4-e][1,2,4]triazolo[1,5-c]pyrimidin-3(2H)-yl)ethyl)piperazin-1-yl)-3-fluoro-N-(2-(methylsulfinyl)ethyl)benzamide] | 1.5 nM | – | 1440 nM | 120 | – | – | – | –
C[S@@+]([O-])CCNC(=O)c1ccc(N2CCN(CCn3c(=O)sc4c3nc(N)n3nc(-c5ccco5)nc43)CC2)c(F)c1 [Compound 124, (R)-4-(4-(2-(5-amino-8-(furan-2-yl)-2-oxothiazolo[5,4-e][1,2,4]triazolo[1,5-c]pyrimidin-3(2H)-yl)ethyl)piperazin-1-yl)-3-fluoro-N-(2-(methylsulfinyl)ethyl)benzamide] | 2.3 nM | – | 2040 nM | 54 | – | – | – | –
Nc1nc2c(sc(=O)n2CCN2CCN(c3ccc(C(=O)N4CC[S+]([O-])CC4)cc3F)CC2)c2nc(-c3ccco3)nn12 [Compound 125, 5-amino-3-(2-(4-(2-fluoro-4-(1-oxidothiomorpholine-4-carbonyl)phenyl)piperazin-1-yl)ethyl)-8-(furan-2-yl)thiazolo[5,4-e][1,2,4]triazolo[1,5-c]pyrimidin-2(3H)-one] | 2.6 nM | – | 3620 nM | 127 | – | – | – | –
Nc1nc2c(sc(=O)n2CCN2CCN(c3ccc(N4CC[S+]([O-])CC4)cc3F)CC2)c2nc(-c3ccco3)nn12 [Compound 126, 5-amino-3-(2-(4-(2-fluoro-4-(1-oxidothiomorpholino)phenyl)piperazin-1-yl)ethyl)-8-(furan-2-yl)thiazolo[5,4-e][1,2,4]triazolo[1,5-c]pyrimidin-2(3H)-one] | 0.6 nM | – | 78 nM | 83 | – | – | – | –
Nc1nc2c(sc(=O)n2CCN2CCN(c3cc(OC[C@H](O)CO)c(F)cc3F)CC2)c2nc(-c3ccco3)nn12 [Compound 128, (R)-5-amino-3-(2-(4-(5-(2,3-dihydroxypropoxy)-2,4-difluorophenyl)piperazin-1-yl)ethyl)-8-(furan-2-yl)thiazolo[5,4-e][1,2,4]triazolo[1,5-c]pyrimidin-2(3H)-one] | 0.4 nM | – | 46 nM | 419 | – | – | – | –
